Measured values: patent publication US11510899B2, “RTX toxin production inhibitor and composition for treating symptom of vibrio infection by using same” (priority 2018, dated 2022)
pEC50: −log10 of the molar value. Read-outs that look alike come from different tables or passages of the source.

Target: T1, HlyU (Vibrio vulnificus, UniProt A0A3Q0L222)
T1 sequence (A0A3Q0L222 1-98): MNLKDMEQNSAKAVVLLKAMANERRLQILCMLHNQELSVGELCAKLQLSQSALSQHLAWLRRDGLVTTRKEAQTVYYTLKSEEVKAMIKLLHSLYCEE
Test: Vibrio reporter strain, pKK1305 (PrtxA-lux, activated by HlyU) in wild-type V. vulnificus
Assay type: cell-based
Settings: HlyU activity (RLU, DMSO = 100%), 30° C.
Experimental: Meanwhile, verification experiments using the Vibrio reporter strain were also conducted so as to exclude false positive results. It was identified that the effect of the compound was not limited only to E. coli using Vibrio vulnificus, each having the reporter plasmid (pZW1608) inhibited by HlyU, which was used for the E. coli reporter strain, and the plasmid (pKK1305) in which the promoter of the rtxA gene activated by HlyU is cloned in front of the bioluminescence operon.
The constructed wild-type Vibrio reporter strain was treated with sample compounds and cultured at 30° C., and cell growth and luminescence were measured in the same manner as the E. coli strain screening (FIG. 3 and FIG. 4).
In order to identify whether or not a specific structure of CM2660 has a significant effect on HlyU inhibition, the effect of HlyU inhibition by the compound CM2660 and derivatives thereof, “Compound Group I” (FIG. 5) was verified. For the purpose, the pKK1305 plasmid prepared in Example 1 was conjugated to the wild-type Vibrio vulnificus, and the Vibrio reporter strain (pKK1305 in wild-type V. vulnificus) thus produced was treated with various concentrations of the derivative compounds.
While culturing at 30° C., the growth of the reporter strain and the degree of bioluminescence thereof were measured in the same manner as in Example 1, and the RLU was calculated. The RLU of the DMSO-treated control group was expressed as 100% HlyU activity. HlyU activity was plotted according to the concentration of the derivative compound, and EC50 (half maximal effective concentration) was calculated using GraphPad Prism 7.0 (GraphPad Software, San Diego, Calif.) (FIG. 6, Table 2).

[1] = Compound Group II, read-out: EC50

SMILES | pEC50 (Compound Group I) | pEC50 [1]
O=C(Nc1scc2c1c(=O)oc1ccccc12)c1ccccc1 [LJ4451] | 3.00 | 
CC(C)(C)OC(=O)CNC(=O)C#Cc1cccnc1 [LJ4532] |  | 4.28
O=C(CCc1ccccc1)Nc1scc2c1c(=O)oc1ccccc12 [LJ4458] | 3.06 | 
O=C(O)CNC(=O)C#Cc1ccccc1 [LJ4533] |  | 2.94
CC(C)(C)OC(=O)CNC(=O)C#Cc1ccc(N)cc1 [LJ4531] |  | 3.93
O=C(O)C#Cc1ccc([N+](=O)[O-])cc1 [LJ4526] |  | 3.85
